Structures are written as SMILES. Read-outs that look alike come from different tables or passages of the source.

As usually defined, the half-life is the time needed for the level to fall by half in the phase considered. In general, bioavailability refers to the share of a dose that reaches the circulation, judged against a reference dose that is usually intravenous.

Data set [1] is described as follows: Pharmacokinetic profile in male SD rats (Experiment 8). The data set is classed as in vivo, rat. Here is the method: Example A was dissolved in 5% DMA+10% Solutol+85%(10% HPBCD in saline) to afford a clear dosing solution of 1 mg/mL. The dosing solution was administered to three rats at 2 mg/kg i.v. via the foot dorsal vein and to three further rats at 10 mg/kg p.o. via oral gavage. Blood samples (ca. 150 μL) were collected at 2, 5, 20 min, 1, 2, 4, 8, 12 and 24 h after i.v. dosing and at 5, 15, 30 min, 1, 2, 4, 8, 12 and 24 h after oral dosing. The blood samples were centrifuged at 4° C. (2000 g, 5 min) within 15 min of sample collection to obtain plasma samples. Plasma samples were stored at −80° C. until analysis. The samples were analysed by UPLC-MS/MS (API 4000).

The target in a further data set is T1, full-length human PDE4A4 (Homo sapiens, UniProt P27815).
T1 construct: stably expressed the full-length human PDE4D5, PDE4A4 and PDE4B1 long isoforms; made in house; cytosol fraction of the lysate
T1 sequence (P27815 whole entry, canonical isoform): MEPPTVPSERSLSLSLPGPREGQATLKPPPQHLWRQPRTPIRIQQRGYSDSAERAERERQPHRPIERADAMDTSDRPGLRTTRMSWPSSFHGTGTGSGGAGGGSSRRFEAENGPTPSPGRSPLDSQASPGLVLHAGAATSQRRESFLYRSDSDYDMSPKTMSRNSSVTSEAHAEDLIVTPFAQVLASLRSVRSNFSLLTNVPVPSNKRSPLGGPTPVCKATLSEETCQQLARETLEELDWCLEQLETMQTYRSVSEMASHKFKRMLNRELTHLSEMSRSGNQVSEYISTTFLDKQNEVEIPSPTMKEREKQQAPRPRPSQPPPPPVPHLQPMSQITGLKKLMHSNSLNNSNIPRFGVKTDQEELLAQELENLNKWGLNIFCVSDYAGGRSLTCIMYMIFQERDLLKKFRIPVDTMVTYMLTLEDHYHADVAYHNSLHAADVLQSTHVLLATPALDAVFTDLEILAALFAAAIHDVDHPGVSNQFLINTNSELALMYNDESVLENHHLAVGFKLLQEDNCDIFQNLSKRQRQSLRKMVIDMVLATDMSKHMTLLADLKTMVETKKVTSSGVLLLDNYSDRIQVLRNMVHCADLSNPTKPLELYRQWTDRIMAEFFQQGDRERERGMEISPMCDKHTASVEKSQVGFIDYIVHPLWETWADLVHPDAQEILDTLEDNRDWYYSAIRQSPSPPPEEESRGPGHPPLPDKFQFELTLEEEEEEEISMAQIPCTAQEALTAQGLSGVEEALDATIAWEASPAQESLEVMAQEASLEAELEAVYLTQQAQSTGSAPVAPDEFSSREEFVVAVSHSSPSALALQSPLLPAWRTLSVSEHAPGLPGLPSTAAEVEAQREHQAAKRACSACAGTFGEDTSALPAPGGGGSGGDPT
Put plainly: PDE4 radio-assay, PDE4A4 long form activation (Experiment 1). The class given is biochemical. Conditions: n ≥ 2. Here is the method: (§1) One suitable method of detecting whether or not a compound is capable of serving as an activator of a PDE4 long form is using a two-step radio-assay procedure described in Experiment 1. In summary, the method involves incubating a PDE4 long form with a test small molecule activator, together with [^3H]-labelled cAMP to assess alterations in the breakdown of cAMP to the 5′-adenosine monophosphate (5′-AMP) product. A sample of the reaction mixture from such an incubation is subsequently treated with snake venom 5′-nucleotidase to allow conversion of the nucleotide [^3H]-labelled 5′-AMP to the uncharged nucleoside [^3H]-labelled adenosine, which can be separated and quantified to assess PDE4 activity and the effect of the test compound (Thompson, W. J. and Appleman, M. M. Biochemistry 10: 311-316, 1971, with some modifications as described in: Marchmont, R. J. and Houslay, M. D. Biochem J. 187: 381-92, 1980).
(§2) HEK 293 cells were transfected with pDEST™ PDE4 expression vectors using Lipofectamine LTX/Plus reagent (Invitrogen) as outlined by the manufacturer and clonal isolates expanded to obtain cell lines that stably expressed the full-length human PDE4D5, PDE4A4 and PDE4B1 long isoforms and the full length human PDE4B2 short isoform. These were called the HEK-PDE4D5, HEK-PDE4A4, HEK-PDE4B1 and HEK-PDE4B2 cell lines, respectively.
(§3) HEK-PDE4D5 cells were seeded out in 100 mm plates and incubated at 37° C. in an atmosphere of 5% CO2, 95% air. Cell lysates were prepared using KHEM buffer [50 mM KCl, 10 mM EGTA, 50 mM HEPES (pH 7.2), 1.92 mM MgCl2].
(§4) To prepare the cell lysates, the 100 mm plates containing the cells were placed on ice and washed with ice-cold PBS (phosphate buffered saline, pH 7.4). KHEM buffer (500 μl) was added to the cells. Cells were then scraped off the plate and triturated using a needle (BD Microlance™ 0.8, 40 mm). The lysed cells were then centrifuged at 2000 rpm for 10 minutes to remove cell debris and the supernatant (cell lysate containing recombinant PDE4D5) was transferred to a fresh tube and kept on ice.
(§5) The cell lysate containing recombinant PDE4D5 was transferred into a centrifuge tube and placed into an ultracentrifuge (BECKMAN COULTER) and spun at high speed (100,000 g) for 30 minutes at 4° C. The cytosol fraction was then collected and its protein amount determined using a BCA protein assay.
PDE assays were performed using a final concentration of 10 mM Tris/5 mM MgCl2 and 1 μM [3H]-cAMP (Perkin Elmer) plus PDE4D5 cell lysate cytosol fraction, containing over-expressed PDE4D5, with and without test compound. Incubations were performed at 30° C. for 5 minutes. The samples were then placed in a boiling water bath for 2 minutes to denature the PDE enzyme, and returned to ice. Samples were allowed to cool for 1.0 min after which snake venom 5′-nucleotidase (25 μl, 1 mg/ml; Sigma) was added. The tubes were vortexed and incubated in a water bath at 30° C. for 10 minutes, to attain conversion of [3H]-5′-AMP to [3H]-adenosine, and then placed on ice. Dowex ion exchange resin (Sigma) prepared as a 1:1 Dowex:water stock was thoroughly re-suspended and diluted 2:1 with ethanol. The resulting Dowex suspension (0.4 ml) was added to each tube. Tubes were vortexed to mix and then incubated on ice for at least 15 minutes before a final vortex. […] Tubes were vortexed thoroughly to mix and the recovered [3H]-adenosine was quantified by measuring counts over 1 minute in a scintillation counter.

The target in the next data set is T2, full-length human PDE4D5 (Homo sapiens, UniProt Q08499).
T2 construct: stably expressed the full-length human PDE4D5, PDE4A4 and PDE4B1 long isoforms; made in house; cytosol fraction of the lysate
T2 sequence (Q08499 1-745 isoform Q08499-6): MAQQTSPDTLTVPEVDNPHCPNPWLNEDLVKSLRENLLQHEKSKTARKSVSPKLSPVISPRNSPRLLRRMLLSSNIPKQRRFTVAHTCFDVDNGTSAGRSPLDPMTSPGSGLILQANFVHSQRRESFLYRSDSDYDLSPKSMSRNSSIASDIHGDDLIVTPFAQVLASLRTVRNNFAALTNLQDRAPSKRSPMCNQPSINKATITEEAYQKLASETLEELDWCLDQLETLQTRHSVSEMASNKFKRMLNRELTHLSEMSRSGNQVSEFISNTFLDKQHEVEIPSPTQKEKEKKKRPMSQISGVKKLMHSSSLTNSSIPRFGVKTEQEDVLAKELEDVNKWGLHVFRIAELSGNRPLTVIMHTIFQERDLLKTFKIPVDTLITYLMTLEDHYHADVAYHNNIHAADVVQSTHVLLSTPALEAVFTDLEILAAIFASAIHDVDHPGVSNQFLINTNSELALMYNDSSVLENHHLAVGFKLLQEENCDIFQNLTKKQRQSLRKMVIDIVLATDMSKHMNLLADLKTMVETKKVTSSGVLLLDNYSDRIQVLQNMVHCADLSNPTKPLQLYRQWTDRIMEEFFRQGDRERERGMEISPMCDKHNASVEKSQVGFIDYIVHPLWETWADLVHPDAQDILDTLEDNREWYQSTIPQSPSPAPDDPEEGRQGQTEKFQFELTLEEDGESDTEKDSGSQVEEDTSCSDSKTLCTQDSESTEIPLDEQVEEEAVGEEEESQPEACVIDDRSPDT
In words: PDE4 radio-assay, PDE4D5 long form activation (Experiment 1). The class given is biochemical. The following applies: n ≥ 2, read-out: PDE4D5 activity (mean % increase in counts over basal activity without added compound). How it is done:
as §1, §2, §3, §4, §5
PDE assays were performed using a final concentration of 10 mM Tris/5 mM MgCl2 and 1 μM [3H]-cAMP (Perkin Elmer) plus PDE4D5 cell lysate cytosol fraction, containing over-expressed PDE4D5, with and without test compound. Incubations were performed at 30° C. for 5 minutes. The samples were then placed in a boiling water bath for 2 minutes to denature the PDE enzyme, and returned to ice. Samples were allowed to cool for 1.0 min after which snake venom 5′-nucleotidase (25 μl, 1 mg/ml; Sigma) was added. The tubes were vortexed and incubated in a water bath at 30° C. for 10 minutes, to attain conversion of [3H]-5′-AMP to [3H]-adenosine, and then placed on ice. Dowex ion exchange resin (Sigma) prepared as a 1:1 Dowex:water stock was thoroughly re-suspended and diluted 2:1 with ethanol. The resulting Dowex suspension (0.4 ml) was added to each tube. Tubes were vortexed to mix and then incubated on ice for at least 15 minutes before a final vortex. The Dowex resin was pelleted by centrifugation at 13,000 g at 4° C. for 3 minutes and 150 μl of the supernatant was removed to an Eppendorf tube containing 1 ml of ScintiSafe3 scintillation fluid (Fisher). Tubes were vortexed thoroughly to mix and the recovered [3H]-adenosine was quantified by measuring counts over 1 minute in a scintillation counter.

For another data set, the system named is HEK 293 cells. In words: Reduction of intracellular cAMP levels in forskolin stimulated HEK 293 cells (Experiment 2). The data set is classed as cell-based, human. Conditions: 10 μM compound for 10 min prior to forskolin (10 μM) for 2 min; FIG. 5. How it is done:
(§6) HEK 293 and MDCK cells (Public Health England, Cell Culture Collections) were maintained in DMEM supplemented with 10% (v/v) fetal bovine serum (Seralab), 2 mM L-glutamine, 1,000 U penicillin and 1,000 μg streptomycin (Life Technologies); termed complete media. Clonal HEK 293 cell lines were maintained in complete media supplemented with 0.6 mg/mL G418 (Enzo Life Sciences).
(§7) HEK 293 or MDCK cells were seeded at 100,000 cells per well, and left to adhere overnight. The cells were then treated with the compound indicated (10 μM) for 10 minutes, prior to stimulation with forskolin (10 μM, Sigma) for 2 minutes. Media was aspirated, and hydrochloric acid (0.1M) was added to lyse the cells. The cAMP assay (Enzo Life Sciences) was performed according to the manufacturers instructions.

For the next data set, the system named is MDCK cells. In words: Reduction of intracellular cAMP levels in forskolin stimulated MDCK cells (Experiment 2). The class given is cell-based, canine. The following applies: 10 μM compound for 10 min prior to forskolin (10 μM) for 2 min; FIG. 6. Here is the method:
as §6, §7
(Cyclic AMP is a second messenger, typically raised through Gs and lowered through Gi signalling.)

For the molecule `CCc1nc(-c2ccc(Cl)c(F)c2)nn1CC(=O)NCc1cccc(F)c1` [Example A, N-(3-Fluorobenzyl)-2-[3-(4-chloro-3-fluorophenyl)-5-ethyl-1H-1,2,4-triazol-1-yl]acetamide], the “abnormal effects observed in the rats” value in data set [1] (2 mg/kg i.v. or 10 mg/kg p.o.) is “No abnormal effects were observed”. For the same molecule, the half-life in data set [1] (rat, iv, 2 mg/kg i.v., plasma, read-out: terminal half life after i.v. dosing (converted)) was 2.2 h; in data set [1] (rat, po, 10 mg/kg p.o., plasma, read-out: terminal half life after oral dosing (converted)), 9.1 h. The same molecule displayed a bioavailability in data set [1] (rat, oral, 10 mg/kg p.o. vs 2 mg/kg i.v., plasma) of 100%. Moreover, the “PDE4A4 activity (mean % increase in counts over basal activity without added compound)” value at full-length human PDE4A4 (1 μM compound) is given as 1.1%; at full-length human PDE4A4 (3 μM compound), 2.7%; at full-length human PDE4A4 (10 μM compound), 10.4%; at full-length human PDE4A4 (30 μM compound), 38.5%; at full-length human PDE4A4 (50 μM compound), 65.4%. The activation at 1 µM at full-length human PDE4D5 (1 μM compound) is -3.6%. The activation at 3 µM at full-length human PDE4D5 (3 μM compound) was -0.2%. Further, on full-length human PDE4D5 (10 μM compound), the activation at 10 µM amounted to 12.5%. Also, at full-length human PDE4D5 (30 μM compound), the activation at 30 µM came to 39.7%. Also, the activation at 50 µM on full-length human PDE4D5 (50 μM compound) came to 91.9%. Besides, the “intracellular cAMP levels in HEK293 cells (in words)” value in the data set with HEK 293 cells is given as “reduction in intracellular cAMP levels”. Also, in the data set with MDCK cells, the “intracellular cAMP levels in MDCK cells (in words)” value is listed as “reduction in intracellular cAMP levels”.

The record behind these values is US10793531B2, “Triazole derivatives and their use as PDE4 activators” (MIRONID LIMITED, priority 2015, dated 2020).
